Like-named read-outs stand apart in the source and are kept apart here. One block for each compound: values may come before it.
What was measured:
kallikrein = kallikrein (Homo sapiens (Human), UniProt P03952); test: In vitro cellular assay (contact assay): kallikrein activity in ellagic acid-activated human plasma, substrate Z-FR-2-AMC; format: biochemical
Procedure: The ability of the compounds disclosed herein to inhibit cellular kallikrein activity was quantified and the respective EC50 value was determined.
All dilutions were prepared in an assay buffer comprising 50 mM Tris-HCl pH 7.2, 150 mM NaCl, and 0.01% Triton X-100.
The ten solutions of the test compounds, prepared by serial dilution, were further diluted 50-fold in the assay buffer.
Human plasma is thawed on ice and centrifuged for 15 min at 4° C. to remove platelets. A 1 mM stock solution of ellagic acid is diluted to 8 μM and mixed with human plasma, after removing platelets, at a ratio of 1:0.8.
A 22.5 μL volume of the final mixture of human plasma and ellagic acid was added to a 96-well microwell plate and the plate was incubated for 15 min at 37° C.
The CINH inhibitor at various concentrations, prepared by serial dilutions as described above, were added to the inhibitor control wells. […] Each CINH concentration is tested in duplicates.
The test compounds at various concentrations, also prepared by serial dilutions as described above, are added to the test wells. […] Each test compound concentration was tested in duplicates.
In addition to the inhibitor control and test wells, the 96 well assay plate includes positive control wells which contained the mixture of human plasma and ellagic acid without C1NH inhibitor or test compounds, and background wells which contained neither the mixture of human plasma and ellagic acid nor the test compounds. The total volume of liquid in positive control and background wells was brought up to 35 μL, using the assay buffer.
The assay plate containing C1NH inhibitors and test compounds mixed with human plasma and ellagic acid and appropriate controls was incubated at 37° C. for 5 min. […] The reagents were mixed well by shaking the plate gently for 30 sec.
The enzyme reaction was quantified by immediate kinetic reading of the assay plate using excitation/emission wavelengths of 330 nm/440 nm respectively. Fluorescence intensity was recorded for 60 min, using a time interval of 43 sec.
The inhibition activity of the test compounds were evaluated using the IC50 values, calculated according to the dose-response curve of the test compounds, fitted using the “log(inhibitor)-response (variable slope)” equation in GraphPadPrism software (GraphPad Software, Inc.).
The percentage inhibition was calculated using the following equation:
[formula] where, Mean(BG) is the average value of the fluorescence intensity of the background wells and Mean(PC) is the average value of the fluorescence intensity of the positive control wells.
Table 4 provides the EC50 values of various compounds disclosed herein.

human Plasma Kallikrein = human Plasma Kallikrein (Homo sapiens (Human), UniProt P03952); test: In vitro enzyme inhibition of human plasma kallikrein (PFR-AMC cleavage); format: biochemical; details: human plasma kallikrein, Pro-Phe-Arg-AMC substrate, 37° C.; read-out: hPK IC50
Procedure: The ability of the compounds disclosed herein to inhibit human plasma kallikrein activity was quantified according to the procedures below.
A 10 mM solution of the test compound was made in DMSO. […] A control tube containing only DMSO is included. 16 μL of each compound test solution was combined with 384 μL of assay buffer (50 mM Tris-HCl pH 7.5, 150 mM NaCl, 0.01% Triton X-100) to yield a “4× test compound buffer stock”.
These solutions are hereby referred to as 4×hPK and 2×PFR-AMC, respectively.
50 μL was removed from this mixture and placed into duplicate wells on a Microfluor 1Black U-bottom microtiter plate (Thermo Scientific). This plate was incubated for 5 minutes at 37° C. To each well, 50 μL of pre-warmed 2×PFR-AMC was added to start the enzymatic reaction. Cleavage of PFR-AMC was monitored in a Biotek Synergy H4 reader set at 37° C. Readings are taken every 43 seconds for 1 hour. […] The IC50 is calculated using the Gen5 (Biotek Instruments).
The ability of the compounds in Table 3 to inhibit human plasma kallikrein activity was determined.

[1] = human plasma activated with ellagic acid, Z-FR-2-AMC substrate, 37° C., read-out: Contact Assay EC50

human Plasma Kallikrein, sequence (P03952 20-638): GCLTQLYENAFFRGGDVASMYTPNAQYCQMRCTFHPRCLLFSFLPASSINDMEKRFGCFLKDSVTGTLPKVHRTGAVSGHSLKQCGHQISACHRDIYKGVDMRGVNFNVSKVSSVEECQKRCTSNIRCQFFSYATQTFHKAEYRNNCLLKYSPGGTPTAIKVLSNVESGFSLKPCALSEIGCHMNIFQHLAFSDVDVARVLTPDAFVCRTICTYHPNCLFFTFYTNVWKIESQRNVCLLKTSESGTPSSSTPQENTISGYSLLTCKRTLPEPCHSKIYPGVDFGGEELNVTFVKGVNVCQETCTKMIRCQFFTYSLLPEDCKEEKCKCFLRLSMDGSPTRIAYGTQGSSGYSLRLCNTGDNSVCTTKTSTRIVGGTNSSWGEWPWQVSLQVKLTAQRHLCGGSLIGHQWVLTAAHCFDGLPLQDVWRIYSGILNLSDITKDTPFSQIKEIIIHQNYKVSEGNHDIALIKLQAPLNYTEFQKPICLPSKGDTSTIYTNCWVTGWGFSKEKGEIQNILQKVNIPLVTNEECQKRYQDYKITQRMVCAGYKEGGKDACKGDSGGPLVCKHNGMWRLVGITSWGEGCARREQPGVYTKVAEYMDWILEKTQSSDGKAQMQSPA
kallikrein, sequence (P03952 20-638): as above

SMILES: Cc1cnc2c(S(C)(=O)=O)cc(Cc3cc(C(=O)NCc4c(C)cc(N)nc4C)ccn3)cc2c1 [Example 15, N-((6-amino-2,4-dimethylpyridin-3-yl)methyl)-2-((3-methyl-8-(methylsulfonyl)quinolin-6-yl)methyl)isonicotinamide]
EC50 (kallikrein; [1]): < 100 nM
IC50 (human Plasma Kallikrein): < 100 nM

SMILES: Cc1cnc2c(S(C)(=O)=O)cc(Cc3cc(C(=O)NCc4ccc5c(N)nccc5c4)ccn3)cc2c1 [Example 16, N-((1-aminoisoquinolin-6-yl)methyl)-2-((3-methyl-8-(methylsulfonyl)quinolin-6-yl)methyl)isonicotinamide]
EC50 (kallikrein; [1]): < 100 nM
IC50 (human Plasma Kallikrein): < 100 nM

SMILES: Cc1cnc2c(S(C)(=O)=O)cc(Cc3cc(C(=O)NCc4cc5cc[nH]c5cc4F)ccn3)cc2c1 [Example 18, N-((6-fluoro-1H-indol-5-yl)methyl)-2-((3-methyl-8-(methylsulfonyl)quinolin-6-yl)methyl)isonicotinamide]
EC50 (kallikrein; [1]): 100 to 1000 nM
IC50 (human Plasma Kallikrein): < 100 nM

SMILES: Cc1cnc2c(S(C)(=O)=O)cc(Cc3cc(C(=O)NCc4cnc5[nH]cc(Cl)c5c4)ccn3)cc2c1 [Example 19, N-((3-chloro-1H-pyrrolo[2,3-b]pyridin-5-yl)methyl)-2-((3-methyl-8-(methylsulfonyl)quinolin-6-yl)methyl)isonicotinamide]
EC50 (kallikrein; [1]): < 100 nM
IC50 (human Plasma Kallikrein): < 100 nM

SMILES: Cc1cnc2c(S(C)(=O)=O)cc(Cc3cc(C(=O)NCc4n[nH]c5ccc(Cl)cc45)ccn3)cc2c1 [Example 20, N-((5-chloro-1H-indazol-3-yl)methyl)-2-((3-methyl-8-(methylsulfonyl)quinolin-6-yl)methyl)isonicotinamide]
EC50 (kallikrein; [1]): < 100 nM
IC50 (human Plasma Kallikrein): < 100 nM

SMILES: Cc1nc(N)ccc1CNC(=O)c1ccnc(Cc2cc(C#N)c3ncc(Cl)cc3c2)c1 [Example 56, N-(6-amino-2-methyl-pyridin-3-ylmethyl)-2-(3-chloro-8-cyano-quinolin-6-ylmethyl)-isonicotinamide]
EC50 (kallikrein): 100 to 1000 nM

SMILES: Cc1cc(N)nc(C)c1CNC(=O)c1ccnc(Cc2cnc3cc(F)ccc3c2)c1 [Example 122, N-((6-amino-2,4-dimethylpyridin-3-yl)methyl)-2-((7-fluoroquinolin-3-yl)methyl)isonicotinamide]
IC50 (human Plasma Kallikrein): < 100 nM

SMILES: Cc1ccc2ccc(Cc3cc(C(=O)NCc4ccc5c(N)nccc5c4)ccn3)cc2n1 [Example 127, N-((1-aminoisoquinolin-6-yl)methyl)-2-((2-methylquinolin-7-yl)methyl)isonicotinamide]
IC50 (human Plasma Kallikrein): < 100 nM

SMILES: Cc1ccc2ccc(Cc3cc(C(=O)NCc4c(C)cc(N)nc4C)ccn3)cc2n1 [Example 129, N-((6-amino-2,4-dimethylpyridin-3-yl)methyl)-2-((2-methylquinolin-7-yl)methyl)isonicotinamide]
IC50 (human Plasma Kallikrein): 100 to 1000 nM

SMILES: Cc1cc(N)nc(C)c1CNC(=O)c1ccnc(Cc2ccc3nc(C#N)ccc3c2)c1 [Example 131, N-(6-amino-2,4-dimethyl-pyridin-3-ylmethyl)-2-(2-cyano-quinolin-6-ylmethyl)-isonicotinamide]
IC50 (human Plasma Kallikrein): < 100 nM

SMILES: CS(=O)(=O)c1ccc2cc(Cc3cc(C(=O)NCc4ccc5c(N)nccc5c4)ccn3)ccc2n1 [Example 134, N-((1-aminoisoquinolin-6-yl)methyl)-2-((2-(methylsulfonyl)quinolin-6-yl)methyl)isonicotinamide]
IC50 (human Plasma Kallikrein): 100 to 1000 nM

SMILES: Cc1cc(N)nc(C)c1CNC(=O)c1ccnc(Cc2cnc3cc(Cl)ccc3c2)c1 [Example 141, N-((6-amino-2,4-dimethylpyridin-3-yl)methyl)-2-((7-chloroquinolin-3-yl)methyl)isonicotinamide]
IC50 (human Plasma Kallikrein): < 100 nM

SMILES: NCc1ccc2cc(Cc3cc(C(=O)NCc4ccc5c(N)nccc5c4)ccn3)ccc2n1 [Example 146, N-((1-aminoisoquinolin-6-yl)methyl)-2-((2-(aminomethyl)quinolin-6-yl)methyl)isonicotinamide]
IC50 (human Plasma Kallikrein): 100 to 1000 nM

Continued, values first:

EC50 (kallikrein; [1]): < 100 nM
IC50 (human Plasma Kallikrein): < 100 nM
SMILES: Cc1cnc2c(S(C)(=O)=O)cc(Cc3cc(C(=O)NCc4cc5c(Cl)c[nH]c5cc4F)ccn3)cc2c1 [Example 17, N-((3-chloro-6-fluoro-1H-indol-5-yl)methyl)-2-((3-methyl-8-(methylsulfonyl)quinolin-6-yl)methyl)isonicotinamide]

IC50 (human Plasma Kallikrein): < 100 nM
SMILES: Cc1nc(N)ccc1CNC(=O)c1ccnc(Cc2cnc3ccc(F)cc3c2)c1 [Example 121, N-((6-amino-2-methylpyridin-3-yl)methyl)-2-((6-fluoroquinolin-3-yl)methyl)isonicotinamide]

IC50 (human Plasma Kallikrein): < 100 nM
SMILES: O=C(NCc1cc2c(Cl)c[nH]c2cc1F)c1ccnc(Cc2cnc3cc(F)ccc3c2)c1 [Example 123, N-((3-chloro-6-fluoro-1H-indol-5-yl)methyl)-2-((7-fluoroquinolin-3-yl)methyl)isonicotinamide]

IC50 (human Plasma Kallikrein): < 100 nM
SMILES: Nc1nccc2cc(CNC(=O)c3ccnc(Cc4cnc5cc(F)ccc5c4)c3)ccc12 [Example 124, N-((1-aminoisoquinolin-6-yl)methyl)-2-((7-fluoroquinolin-3-yl)methyl)isonicotinamide]

IC50 (human Plasma Kallikrein): < 100 nM
SMILES: O=C(NCc1cc2c(Cl)c[nH]c2cc1F)c1ccnc(Cc2cnc3ccccc3c2)c1 [Example 125, N-((3-chloro-6-fluoro-1H-indol-5-yl)methyl)-2-(quinolin-3-ylmethyl)isonicotinamide]

IC50 (human Plasma Kallikrein): < 100 nM
SMILES: O=C(NCc1cc2c(Cl)c[nH]c2cc1F)c1ccnc(Cc2cnc3ccc(Cl)cc3c2)c1 [Example 126, N-((3-chloro-6-fluoro-1H-indol-5-yl)methyl)-2-((6-chloroquinolin-3-yl)methyl)isonicotinamide]

IC50 (human Plasma Kallikrein): < 100 nM
SMILES: Cc1ccc2ccc(Cc3cc(C(=O)NCc4cc5c(Cl)c[nH]c5cc4F)ccn3)cc2n1 [Example 128, N-((3-chloro-6-fluoro-1H-indol-5-yl)methyl)-2-((2-methylquinolin-7-yl)methyl)isonicotinamide]

IC50 (human Plasma Kallikrein): < 100 nM
SMILES: Cc1cc2cc(Cc3cc(C(=O)NCc4cc5c(Cl)c[nH]c5cc4F)ccn3)ccc2cn1 [Example 133, N-((3-chloro-6-fluoro-1H-indol-5-yl)methyl)-2-((3-methylisoquinolin-6-yl)methyl)isonicotinamide]

IC50 (human Plasma Kallikrein): 100 to 1000 nM
SMILES: CS(=O)(=O)c1ccc2cc(Cc3cc(C(=O)NCc4cc5c(Cl)c[nH]c5cc4F)ccn3)ccc2n1 [Example 135, N-((3-chloro-6-fluoro-1H-indol-5-yl)methyl)-2-((2-(methylsulfonyl)quinolin-6-yl)methyl)isonicotinamide]

IC50 (human Plasma Kallikrein): < 100 nM
SMILES: N#Cc1ccnc2ccc(Cc3cc(C(=O)NCc4ccc5c(N)nccc5c4)ccn3)cc12 [Example 136, N-((1-aminoisoquinolin-6-yl)methyl)-2-((4-cyanoquinolin-6-yl)methyl)isonicotinamide]

IC50 (human Plasma Kallikrein): 100 to 1000 nM
SMILES: N#Cc1ccnc2ccc(Cc3cc(C(=O)NCc4cc5c(Cl)c[nH]c5cc4F)ccn3)cc12 [Example 137, N-((3-chloro-6-fluoro-1H-indol-5-yl)methyl)-2-((4-cyanoquinolin-6-yl)methyl)isonicotinamide]

IC50 (human Plasma Kallikrein): < 100 nM
SMILES: Cc1cc(N)nc(C)c1CNC(=O)c1ccnc(Cc2ccc3nccc(C#N)c3c2)c1 [Example 138, N-((6-amino-2,4-dimethylpyridin-3-yl)methyl)-2-((4-cyanoquinolin-6-yl)methyl)isonicotinamide]

IC50 (human Plasma Kallikrein): < 100 nM
SMILES: Nc1nccc2cc(CNC(=O)c3ccnc(Cc4cnc5cc(Cl)ccc5c4)c3)ccc12 [Example 139, N-((1-aminoisoquinolin-6-yl)methyl)-2-((7-chloroquinolin-3-yl)methyl)isonicotinamide]

IC50 (human Plasma Kallikrein): < 100 nM
SMILES: O=C(NCc1cc2c(Cl)c[nH]c2cc1F)c1ccnc(Cc2cnc3cc(Cl)ccc3c2)c1 [Example 140, N-((3-chloro-6-fluoro-1H-indol-5-yl)methyl)-2-((7-chloroquinolin-3-yl)methyl)isonicotinamide]
